PubChem BioAssay (NCI)
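Method: 48-hour compound exposure of cells in 96-well plates, five concentrations, linear interpolation of endpoints. GI50 = concentration required for 50% inhibition of growth. The concentration for full growth arrest is given as TGI.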

Tests used:
Test in all cases: NCI anticancer screen, dose series, 48 h
786-0 renal = test system: 786-0 renal
A549 NSCLC = test system: A549 NSCLC
ACHN renal = test system: ACHN renal
BT-549 breast = test system: BT-549 breast
CAKI-1 renal = test system: CAKI-1 renal
CCRF-CEM leukemia = test system: CCRF-CEM leukemia
COLO 205 colon = test system: COLO 205 colon
DU-145 prostate = test system: DU-145 prostate
EKVX NSCLC = test system: EKVX NSCLC
HCC-2998 colon = test system: HCC-2998 colon
HCT-116 colon = test system: HCT-116 colon
HCT-15 colon = test system: HCT-15 colon
HL-60(TB) leukemia = test system: HL-60(TB) leukemia
HOP-62 NSCLC = test system: HOP-62 NSCLC
HS 578T breast = test system: HS 578T breast
HT29 colon = test system: HT29 colon
IGROV1 ovarian = test system: IGROV1 ovarian
K-562 leukemia = test system: K-562 leukemia
KM12 colon = test system: KM12 colon
LOX IMVI melanoma = test system: LOX IMVI melanoma
M14 melanoma = test system: M14 melanoma
MALME-3M melanoma = test system: MALME-3M melanoma
MCF7 breast = test system: MCF7 breast
MDA-MB-231 breast = test system: MDA-MB-231 breast
MDA-MB-435 = test system: MDA-MB-435
MDA-MB-468 breast = test system: MDA-MB-468 breast
MOLT-4 leukemia = test system: MOLT-4 leukemia
NCI-H226 lung = test system: NCI-H226 lung
NCI-H23 lung = test system: NCI-H23 lung
NCI-H460 lung = test system: NCI-H460 lung
NCI-H522 lung = test system: NCI-H522 lung
NCI/ADR-RES ovarian = test system: NCI/ADR-RES ovarian
OVCAR-3 ovarian = test system: OVCAR-3 ovarian
OVCAR-4 ovarian = test system: OVCAR-4 ovarian
OVCAR-5 ovarian = test system: OVCAR-5 ovarian
OVCAR-8 ovarian = test system: OVCAR-8 ovarian
PC-3 prostate = test system: PC-3 prostate
RPMI-8226 leukemia = test system: RPMI-8226 leukemia
RXF 393 renal = test system: RXF 393 renal
SF-268 CNS = test system: SF-268 CNS
SF-295 CNS = test system: SF-295 CNS
SF-539 CNS = test system: SF-539 CNS
SK-MEL-2 melanoma = test system: SK-MEL-2 melanoma
SK-MEL-28 melanoma = test system: SK-MEL-28 melanoma
SK-MEL-5 melanoma = test system: SK-MEL-5 melanoma
SK-OV-3 ovarian = test system: SK-OV-3 ovarian
SN12C renal = test system: SN12C renal
SNB-19 CNS = test system: SNB-19 CNS
SNB-75 CNS = test system: SNB-75 CNS
SR leukemia = test system: SR leukemia
SW-620 colon = test system: SW-620 colon
T-47D breast = test system: T-47D breast
TK-10 renal = test system: TK-10 renal
U251 CNS = test system: U251 CNS
UACC-257 melanoma = test system: UACC-257 melanoma
UACC-62 melanoma = test system: UACC-62 melanoma
UO-31 renal = test system: UO-31 renal

N#Cc1cc(-c2ccc3ncnc(N4CCc5cc(F)c(Cl)cc54)c3c2)cnc1N
GI50 (786-0 renal): 0.435 µM | TGI (786-0 renal): 21.9 µM | GI50 (A549 NSCLC): 1.88 µM | TGI (A549 NSCLC): > 100 µM | GI50 (ACHN renal): 0.85 µM | TGI (ACHN renal): > 100 µM | GI50 (BT-549 breast): 1.23 µM | TGI (BT-549 breast): 32.6 µM | GI50 (CAKI-1 renal): 0.786 µM | TGI (CAKI-1 renal): > 100 µM | GI50 (CCRF-CEM leukemia): 0.575 µM | TGI (CCRF-CEM leukemia): > 100 µM | GI50 (COLO 205 colon): 1.9 µM | TGI (COLO 205 colon): > 100 µM | GI50 (DU-145 prostate): 1.49 µM | TGI (DU-145 prostate): > 100 µM | GI50 (EKVX NSCLC): 0.94 µM | TGI (EKVX NSCLC): > 100 µM | GI50 (HCC-2998 colon): 2.07 µM | TGI (HCC-2998 colon): > 100 µM | GI50 (HCT-116 colon): 2.11 µM | TGI (HCT-116 colon): 10.4 µM | GI50 (HCT-15 colon): 1.68 µM | TGI (HCT-15 colon): > 100 µM | GI50 (HL-60(TB) leukemia): 0.422 µM | TGI (HL-60(TB) leukemia): > 100 µM | GI50 (HOP-62 NSCLC): 3.75 µM | TGI (HOP-62 NSCLC): > 100 µM | GI50 (HS 578T breast): 0.633 µM | TGI (HS 578T breast): 7.71 µM | GI50 (HT29 colon): 2.65 µM | TGI (HT29 colon): > 100 µM | GI50 (IGROV1 ovarian): 0.365 µM | TGI (IGROV1 ovarian): 3.01 µM | GI50 (K-562 leukemia): 3.23 µM | TGI (K-562 leukemia): > 100 µM | GI50 (KM12 colon): 15.9 µM | TGI (KM12 colon): > 100 µM | GI50 (LOX IMVI melanoma): 1.6 µM | TGI (LOX IMVI melanoma): 16.9 µM | GI50 (M14 melanoma): 3.09 µM | TGI (M14 melanoma): > 100 µM | GI50 (MALME-3M melanoma): 2.93 µM | TGI (MALME-3M melanoma): 45.5 µM | GI50 (MCF7 breast): 0.532 µM | TGI (MCF7 breast): 4.05 µM | GI50 (MDA-MB-231 breast): 2.45 µM | TGI (MDA-MB-231 breast): 9.48 µM | GI50 (MDA-MB-435): 4.15 µM | TGI (MDA-MB-435): 29.8 µM | GI50 (MDA-MB-468 breast): 0.227 µM | TGI (MDA-MB-468 breast): 0.88 µM | GI50 (MOLT-4 leukemia): 1.63 µM | TGI (MOLT-4 leukemia): 11.4 µM | GI50 (NCI-H226 lung): 1.38 µM | TGI (NCI-H226 lung): > 100 µM | GI50 (NCI-H23 lung): 3.34 µM | TGI (NCI-H23 lung): > 100 µM | GI50 (NCI-H460 lung): 1.9 µM | TGI (NCI-H460 lung): 6.52 µM | GI50 (NCI-H522 lung): 3.34 µM | TGI (NCI-H522 lung): > 100 µM | GI50 (NCI/ADR-RES ovarian): 2.41 µM | TGI (NCI/ADR-RES ovarian): > 100 µM | GI50 (OVCAR-3 ovarian): 1.47 µM | TGI (OVCAR-3 ovarian): > 100 µM | GI50 (OVCAR-4 ovarian): 3.7 µM | TGI (OVCAR-4 ovarian): > 100 µM | GI50 (OVCAR-5 ovarian): 5.21 µM | TGI (OVCAR-5 ovarian): > 100 µM | GI50 (OVCAR-8 ovarian): 2.34 µM | TGI (OVCAR-8 ovarian): > 100 µM | GI50 (PC-3 prostate): 1.75 µM | TGI (PC-3 prostate): > 100 µM | GI50 (RPMI-8226 leukemia): 0.992 µM | TGI (RPMI-8226 leukemia): > 100 µM | GI50 (RXF 393 renal): 0.316 µM | TGI (RXF 393 renal): 2.94 µM | GI50 (SF-268 CNS): 2.31 µM | TGI (SF-268 CNS): > 100 µM | GI50 (SF-295 CNS): 3.23 µM | TGI (SF-295 CNS): > 100 µM | GI50 (SF-539 CNS): 1.87 µM | TGI (SF-539 CNS): > 100 µM | GI50 (SK-MEL-2 melanoma): 17.1 µM | TGI (SK-MEL-2 melanoma): > 100 µM | GI50 (SK-MEL-28 melanoma): 2.81 µM | TGI (SK-MEL-28 melanoma): > 100 µM | GI50 (SK-MEL-5 melanoma): 3.03 µM | TGI (SK-MEL-5 melanoma): > 100 µM | GI50 (SK-OV-3 ovarian): 2.92 µM | TGI (SK-OV-3 ovarian): > 100 µM | GI50 (SN12C renal): 1.05 µM | TGI (SN12C renal): 11.2 µM | GI50 (SNB-19 CNS): 3.41 µM | TGI (SNB-19 CNS): > 100 µM | GI50 (SNB-75 CNS): 0.838 µM | TGI (SNB-75 CNS): > 100 µM | GI50 (SR leukemia): 1.01 µM | TGI (SR leukemia): 10 µM | GI50 (SW-620 colon): 2.62 µM | TGI (SW-620 colon): > 100 µM | GI50 (T-47D breast): 1.49 µM | TGI (T-47D breast): > 100 µM | GI50 (TK-10 renal): 0.993 µM | TGI (TK-10 renal): > 100 µM | GI50 (U251 CNS): 2.71 µM | TGI (U251 CNS): > 100 µM | GI50 (UACC-257 melanoma): 4.45 µM | TGI (UACC-257 melanoma): > 100 µM | GI50 (UACC-62 melanoma): 3.39 µM | TGI (UACC-62 melanoma): > 100 µM | GI50 (UO-31 renal): 0.278 µM | TGI (UO-31 renal): > 100 µM
